# In patent US20140350029A1 (DAINIPPON SUMITOMO PHARMA CO., LTD., priority 2011, published 2014):
# Entries after “also recorded” stand apart in the source; their conditions may differ.
# Key:
# [1] = molecular target: T1, Dopamine D1 receptor (Rattus norvegicus, UniProt P18901); experiment: In vitro receptor binding, dopamine D1 (rat); conditions: read-out: Binding Affinities (Ki; nM) Dopamine D1
# T1 construct: Membranes from male Wistar rat brain tissues; from tissue; host or cells: male Wistar rat brain
# T1 sequence (P18901 whole entry): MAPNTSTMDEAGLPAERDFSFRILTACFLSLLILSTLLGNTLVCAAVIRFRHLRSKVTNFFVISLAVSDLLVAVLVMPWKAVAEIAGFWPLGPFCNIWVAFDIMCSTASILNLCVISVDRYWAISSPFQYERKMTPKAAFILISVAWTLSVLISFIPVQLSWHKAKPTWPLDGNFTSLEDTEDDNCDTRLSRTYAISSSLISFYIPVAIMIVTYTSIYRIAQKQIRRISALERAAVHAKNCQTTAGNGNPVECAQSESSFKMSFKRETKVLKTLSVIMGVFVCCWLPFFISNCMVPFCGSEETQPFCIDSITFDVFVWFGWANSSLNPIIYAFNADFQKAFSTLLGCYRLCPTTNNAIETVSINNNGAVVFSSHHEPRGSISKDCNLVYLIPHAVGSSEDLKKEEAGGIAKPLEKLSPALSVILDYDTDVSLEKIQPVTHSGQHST
# Description: In vitro binding studies were carried out according to the procedures well-established in the art. Membranes from male Wistar rat brain tissues or cells expressing cloned human receptors were prepared under assay conditions summarized in Ishibashi, T. et al. (Journal of Pharmacology and Experimental Therapeutics (2010)). Functional assays were carried out to analyze the binding affinity and effect on receptor function for dopamine D1-D4 receptor subtypes, serotonin 5-HT1A, 5-HT2A, 5-HT2C, 5-HT6, 5-HT7, norepinephrine α1, α2A, α2C, histamine H1 receptors, and muscarinic M1 receptors.
# [2] = molecular target: T2, Norepinephrine α2C receptor (Homo sapiens, UniProt P18825); experiment: In vitro receptor binding, norepinephrine α2C
# T2 sequence (P18825 1-462): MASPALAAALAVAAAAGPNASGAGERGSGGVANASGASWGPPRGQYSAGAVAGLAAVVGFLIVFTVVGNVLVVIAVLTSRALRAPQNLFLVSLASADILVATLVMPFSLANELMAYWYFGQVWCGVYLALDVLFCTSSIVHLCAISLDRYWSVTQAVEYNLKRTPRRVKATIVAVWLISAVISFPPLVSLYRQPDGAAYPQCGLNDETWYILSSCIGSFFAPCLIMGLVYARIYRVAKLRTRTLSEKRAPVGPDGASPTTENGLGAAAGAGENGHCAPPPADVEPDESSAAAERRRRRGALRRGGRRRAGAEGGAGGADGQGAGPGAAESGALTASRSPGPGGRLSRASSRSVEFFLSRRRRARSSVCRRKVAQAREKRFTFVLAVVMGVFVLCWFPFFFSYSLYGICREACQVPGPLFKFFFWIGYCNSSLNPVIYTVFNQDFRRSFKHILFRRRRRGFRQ
# [3] = Metabolic effects, 1-year lurasidone therapy; assay type: in vivo, human; conditions: 40-120 mg/day, 1-year study, patients with schizophrenia
# Description: Changes in weight, total cholesterol, triglycerides, fasting glucose, and prolactin were measured and compared to baseline levels.
# [4] = system: patients with schizophrenia; experiment: PANSS and BPRS scores, 1-year lurasidone therapy; assay type: in vivo, human; conditions: 40-120 mg/day, over a 1-year period
# [5] = system: patients with bipolar I depression; experiment: Lurasidone adjunctive to lithium or divalproex for bipolar I depression, 6-week study, efficacy; assay type: in vivo, human; conditions: lurasidone 20-120 mg/day adjunctive to lithium or divalproex, 6 weeks
# Description: Changes from DB baseline (DB BL) in MADRS total score and secondary efficacy outcomes were analyzed using either mixed model for repeated measures (MMRM) or analysis of covariance, last observation carried forward (ANCOVA-LOCF), or logistic regression.
# Therapeutic blood levels of Li or VPA had to be maintained for ≧28 days prior to randomization.
# The total duration of treatment was 6 weeks.
# A mixed model for repeated measures (MMRM) was utilized using the ITT population. The results are depicted in FIG. 16. The MMRM model included treatment, visit, pooled center, stratification variable (lithium or divalproex), baseline MADRS total score, and the treatment-by-visit interactions. An unstructured covariance matrix was used for the within-subject correlation. Missing observations were not imputed for this analysis.
# Efficacy was also evaluated by measuring the change from baseline in CGI-BP-S score (depression) and the change from baseline in SDS total score. The results are depicted in FIGS. 17 and 18. CGI-BP-S was analyzed using the MMRM method described above, and SDS was analyzed using an analysis of covariance (ANCOVA) model with treatment, visit, pooled center, stratification variable (lithium or divalproex) and the baseline value of SDS. The ITT population was used for the analyses.
# [6] = molecular target: T3, serotonin 5-HT1A receptor (Homo sapiens, UniProt P08908); conditions: background statement; cited from earlier work
# T3 sequence (P08908 1-422): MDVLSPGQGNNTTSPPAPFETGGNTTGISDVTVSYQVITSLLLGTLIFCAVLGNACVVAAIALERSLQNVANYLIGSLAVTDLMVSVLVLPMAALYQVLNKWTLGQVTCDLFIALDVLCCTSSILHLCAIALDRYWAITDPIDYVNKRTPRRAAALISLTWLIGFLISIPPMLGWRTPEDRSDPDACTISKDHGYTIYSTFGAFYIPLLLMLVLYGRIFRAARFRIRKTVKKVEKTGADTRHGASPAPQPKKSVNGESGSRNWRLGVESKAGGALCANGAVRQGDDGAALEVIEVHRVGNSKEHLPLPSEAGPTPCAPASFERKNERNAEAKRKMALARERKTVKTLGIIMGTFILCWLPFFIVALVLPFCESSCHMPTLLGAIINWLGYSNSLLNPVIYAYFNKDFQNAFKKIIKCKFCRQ
# [7] = molecular target: 5-HT7 receptor (Homo sapiens, UniProt P34969); conditions: background statement; cited from earlier work
# Sequence of 5-HT7 receptor (P34969 whole entry): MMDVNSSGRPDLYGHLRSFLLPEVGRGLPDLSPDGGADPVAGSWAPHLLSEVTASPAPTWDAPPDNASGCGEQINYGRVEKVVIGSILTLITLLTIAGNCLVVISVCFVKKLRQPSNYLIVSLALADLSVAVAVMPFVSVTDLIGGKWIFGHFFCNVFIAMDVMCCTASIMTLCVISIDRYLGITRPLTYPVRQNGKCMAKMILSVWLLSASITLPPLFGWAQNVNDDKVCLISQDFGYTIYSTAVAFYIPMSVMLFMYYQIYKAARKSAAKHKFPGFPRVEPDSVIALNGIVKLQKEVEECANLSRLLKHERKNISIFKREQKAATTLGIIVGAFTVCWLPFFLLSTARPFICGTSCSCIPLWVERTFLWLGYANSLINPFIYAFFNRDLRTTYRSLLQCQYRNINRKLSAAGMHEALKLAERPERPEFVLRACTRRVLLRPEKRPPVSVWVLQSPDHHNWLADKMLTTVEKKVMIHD
# [8] = molecular target: T4, noradrenaline α2C receptor (Homo sapiens, UniProt P18825); conditions: background statement; cited from earlier work
# T4 sequence (P18825 1-462): T2 sequence (P18825 1-462)
# [9] = molecular target: T5, muscarinic M1 receptor (Homo sapiens, UniProt P11229); conditions: background statement; cited from earlier work
# T5 sequence (P11229 1-460): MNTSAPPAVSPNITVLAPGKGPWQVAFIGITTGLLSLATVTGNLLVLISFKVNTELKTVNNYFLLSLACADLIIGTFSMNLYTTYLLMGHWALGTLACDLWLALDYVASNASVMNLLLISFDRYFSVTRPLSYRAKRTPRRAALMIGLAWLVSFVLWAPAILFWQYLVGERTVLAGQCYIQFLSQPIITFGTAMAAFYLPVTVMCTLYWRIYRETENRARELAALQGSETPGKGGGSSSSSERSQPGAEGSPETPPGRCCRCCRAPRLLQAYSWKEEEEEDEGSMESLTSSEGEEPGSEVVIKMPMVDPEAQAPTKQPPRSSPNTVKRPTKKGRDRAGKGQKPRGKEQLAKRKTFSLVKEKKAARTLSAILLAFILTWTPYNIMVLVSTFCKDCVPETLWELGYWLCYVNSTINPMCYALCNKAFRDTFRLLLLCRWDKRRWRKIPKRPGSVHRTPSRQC
compound,measurement,setting,value
O=C1[C@@H]2[C@H]3CC[C@H](C3)[C@@H]2C(=O)N1C[C@@H]1CCCC[C@H]1CN1CCN(c2nsc3ccccc23)CC1 [Lurasidone],Ki,[1],262 nM
same,Ki,"[2]; cloned cells expressing human receptors, read-out: Binding Affinities (Ki; nM) Norepinephrine α2C",10.8 nM
same,affinity for α2C adrenoreceptor (in words),[2]; summary of Table 2,moderate affinity
same,"changes in mean weight, lipids, and prolactin from baseline",[3],no adverse changes
same,total PANSS and Brief Psychiatric Rating Scale (BPRS) scores,[4],gradual and sustained improvement
same,depressive symptoms compared to placebo,[5],significantly reduced depressive symptoms
same,"self-rated measures of social, family, and occupational function as well as quality of life",[5],significantly improved
same,reported affinity for 5-HT1A receptor,[6],high affinity; also recorded: moderate affinity
same,reported affinity for 5-HT7 receptor,[7],high affinity
same,reported affinity for noradrenaline α2C receptor,[8],high affinity
same,reported affinity for muscarinic M1 receptor,[9],minimal to no affinity
